# Reference: article PMC5517562, “Design and discovery of novel monastrol-1,3,5-triazines as potent anti-breast cancer agent via attenuating Epidermal Growth Factor Receptor tyrosine kinase” (Scientific Reports, 2017)
# Columns and labels:
# [1] = test system: HeLa (cervical cancer); assay: MTT in vitro cytotoxicity assay, HeLa; format: cell-based, human; conditions: Homo sapiens
# Method: (§1) The synthesized compounds were evaluated for in-vitro cytotoxic activity against various cell lines such as HeLa (cervical cancer), MCF-7 (breast cancer), HL-60 (Human promyelocytic leukemia), HepG2 (Hepatocellular carcinoma) and MCF 12A (normal epithelial cell) by the MTT assay method. […] The relationship between surviving fraction and drug concentration was plotted to obtain the survival curve of all the cancer cell lines HeLa, MCF-7, HL-60 and HepG2. The response parameter calculated was the IC50 values, which responds to the concentration required for 50% inhibition of cell viability. The in-vitro cytotoxic activity of the synthesized compounds is summarized Table 3.
# (§2) The target compounds were subjected to in vitro cytotoxicity bioassay. In vitro cytotoxicity was determined using a standard MTT assay with protocol appropriate for the individual test system[29]–[31]. The four human cancer cell lines HeLa, MCF-7, HL-60, HepG2 and MCF-12A were cultured in the MEM medium supplemented with 10% FBS, 1% glutamine and […] gentamicin sulfate in a CO2 incubator in a humidified atmosphere of 5% CO2 and 95% air. The test compounds were prepared prior to the experiment by dissolving in 0.1% DMSO and diluted with medium. The cells were then exposed to different concentrations of drugs ([…]) in the volume of […]. Cells in the control wells received the same volume of medium containing 0.1% DMSO. After 24 h, the medium was removed and cell cultures were incubated with […] MTT reagent (1 mg/ml) for 5 h at 37 °C. The known number of cells ([…]) was incubated in a 5% CO2 incubator at 37 °C in the presence of different concentrations of test compounds. After 48 h of drug incubation, the MTT solution was added in each well and absorbance was recorded at 540 nm by an ELISA reader. The experiment was performed in triplicate. Cell survival was calculated as the percentage of MTT inhibition as % growth inhibition = 100 − (mean OD of individual test Group/Mean OD of each Control Group) × 100.
# [2] = test system: HL-60 (Human promyelocytic leukemia); assay: MTT in vitro cytotoxicity assay, HL-60; format: cell-based; conditions: Homo sapiens
# Method: as §1, §2
# [3] = test system: HepG2 (Hepatocellular carcinoma); assay: MTT in vitro cytotoxicity assay, HepG2; format: cell-based, human; conditions: Homo sapiens, NA: Not active
# Method: as §1, §2
# [4] = test system: MCF 12A (normal epithelial breast cell line); assay: MTT assay on normal cells, MCF 12A; format: cell-based, human; conditions: normal epithelial breast cell MCF 12A
# Method: as §1
# The presence of non-halogen substituent along with electron donating substituent seriously jeopardise the anticancer potential. […] To determine the selectivity of these molecules between normal and cancerous cells, the designed compounds were also tested against MCF 12A, a normal epithelial breast cell.
# as §2
# [5] = test system: p-EGFR and p-Akt levels of MCF-7; assay: Western blot of EGFR activation and downstream signalling in MCF-7; format: cell-based, human; conditions: immunoblotting, concentration-dependent
# Description: However, despite of excellent inhibitory activity of 7l against the EGFR-TK, its mechanism behind this phenomena has not been elucidate till now, thus, in this part of the study, we are interested in exploring the effect of compound 7l on the activation and downstream signalling pathway of the EGFR. Towards this, the effect of 7l has been determined on the expression of p-EGFR and EGFR, p-Akt and Akt levels of MCF-7 by immunoblotting experiments. Results as presented in Fig. 14 confirmed the effect of 7l on the expression of p-EGFR and p-Akt. […] Results clearly indicate the ability of 7l to inhibit the phosphorylation of EGFR which in turn decreases Akt (the downstream target protein of p-EGFR).
# After incubation with the test compound, the cells were harvested and washed with PBS, and then lysed in lysis buffer. After centrifugation at 12,000 × g for 5 min, the supernatant was collected as total protein. The concentration of the protein was determined by a protein assay kit. The protein samples were separated by 10% SDS–PAGE and subsequently electro-transferred onto a PVDF (Millipore, Bedford, MA, USA). […] The antibodies were purchased from Cell Signaling Technology (MA, USA) Thus, the expression of p-EGFR, EGFR, p-Akt (pS473) and Akt were visualized by enhanced chemiluminescence (ECL) (Thermofischer Scientific Inc. USA) kit and band intensity was analyzed by image j software.
smiles,measurement,setting,value
"CCOC(=O)C1=C(C)N(c2nc(Nc3cccc(F)c3)nc(Nc3cccc(F)c3)n2)C(=S)NC1c1ccc(F)cc1 (stereo not drawn) [7l, Ethyl 1-(4,6-bis((3-fluorophenyl)amino)-1,3,5-triazin-2-yl)-4-(4-fluorophenyl)-6-methyl-2-thioxo-1,2,3,4-tetrahydropyrimidine-5-carboxylate]",IC50,[1],39.7 ± 0.81 µM
same,IC50,[2],23.1 ± 0.36 µM
same,IC50,[3],31.2 ± 0.82 µM
same,IC50 MCF 12A,[4],non-toxic
same,Level of p-Akt,[5],significantly reduced
same,Level of p-EGFR,[5],significantly reduced
